# Where two headings read alike, the source gives them in different places.
# Columns and labels:
# pSTAT1 (Tyr-701) = molecular target: T1, pSTAT1 (Tyr-701) (Homo sapiens, UniProt P42224); experiment: Phosphoflow, IFN-γ-induced pSTAT1 in Kasumi-1 cells; type: cell-based
# T1 construct: endogenous in cells; host or cells: Kasumi-1
# T1 sequence (P42224 1-750): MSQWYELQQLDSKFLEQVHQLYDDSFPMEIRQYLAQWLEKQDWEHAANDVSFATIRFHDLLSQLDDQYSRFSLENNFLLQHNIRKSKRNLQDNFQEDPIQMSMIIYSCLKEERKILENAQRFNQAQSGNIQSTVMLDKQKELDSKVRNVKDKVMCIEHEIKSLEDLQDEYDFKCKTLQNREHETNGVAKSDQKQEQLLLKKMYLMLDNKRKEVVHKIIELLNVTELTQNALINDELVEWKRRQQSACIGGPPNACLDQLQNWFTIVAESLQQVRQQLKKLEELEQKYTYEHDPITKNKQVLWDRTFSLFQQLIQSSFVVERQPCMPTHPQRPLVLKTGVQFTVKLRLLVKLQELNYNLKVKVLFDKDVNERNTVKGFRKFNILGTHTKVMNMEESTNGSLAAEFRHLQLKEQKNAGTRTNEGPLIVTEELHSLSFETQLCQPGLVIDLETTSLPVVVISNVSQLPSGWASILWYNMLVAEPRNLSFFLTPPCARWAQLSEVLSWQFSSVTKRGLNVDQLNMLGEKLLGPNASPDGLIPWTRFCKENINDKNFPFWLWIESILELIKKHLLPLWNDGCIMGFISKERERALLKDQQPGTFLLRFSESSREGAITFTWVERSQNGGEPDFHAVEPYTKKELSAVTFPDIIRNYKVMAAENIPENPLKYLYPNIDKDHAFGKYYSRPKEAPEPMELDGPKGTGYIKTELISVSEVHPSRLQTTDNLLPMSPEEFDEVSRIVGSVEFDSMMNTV
# pSTAT1 = molecular target: T2, pSTAT1 (Homo sapiens, UniProt P42224); experiment: Constitutive pSTAT1 in HNSCC cell lines (Luminex); type: cell-based; design: endogenous in cells; host or cells: UM-SCC-17B, SCC-61, HN30, SCC-35
# T2 sequence (P42224 1-750): T1 sequence (P42224 1-750)
smiles,measurement,setting,value
COc1ccc(S(=O)(=O)Nc2cc(-c3c(O)ccc4ccccc34)c(O)c3ccccc23)cc1 [Compound C188-9],IC50,"pSTAT1 (Tyr-701); Figure 2C, Kasumi-1, read-out: Phosphoflow pSTAT1 (Tyr-701) IC50, representative experiment",13.4 µM
same,IC50,"pSTAT1 (Tyr-701); Kasumi-1, IFN-γ 10 ng/ml 15 min, mean, n ≥ 2, read-out: Ligand Induced Phosphorylation (Phosphoflow) pSTAT1 (IFN-γ) IC50",9.6 ± 5.6 µM
same,IC50,"pSTAT1; HN30, 36 hrs",5 ± 6 µM
same,IC50,"pSTAT1; SCC-61, 36 hrs",28.5 ± 0.9 µM
same,IC50,pSTAT1; UM-SCC-17B,19.1 ± 15.5 µM
